Assay results published in US9889108B2, “Compositions and methods for treating non-alcoholic steatohepatitis” (priority 2013, dated 2018).

Key:
CYP450 = details: at free concentrations observed in humans; cited from earlier work
rabbits = assay: Lipid lowering in rabbits; format: in vivo, rabbit
platelets from rabbits = assay: Platelet anti-aggregation, rabbit platelets; format: cell-based
arteries in rabbits = assay: Elasticity of arteries in rabbits; format: in vivo, rabbit
platelets from humans = assay: Platelet anti-aggregation, human platelets; format: cell-based
[1] = tested on: methionine-choline deficient diet rat model of nonalcoholic steatohepatitis; assay: Methionine-choline deficient diet rat model of nonalcoholic steatohepatitis; format: in vivo; details: repeat oral administration at 1000 mg/kg; by suppressing inflammation and oxidative stress
[2] = Excretion of radioactivity after single oral administration (rats); format: in vivo, rat
Protocol: (§1) EPADEL is a product containing ethyl all-cis-5,8,11,14,17-eicosapentaenoate (EPA-E), one of the n-3 essential fatty acids. The preclinical absorption, distribution, metabolism and excretion (ADME) characteristics of EPA-E have been determined primarily in rats.
Consequently, when EPA-E is administered orally to humans, it would appear that it is well absorbed, even though the unchanged ethyl ester form is not detected, and the free form (EPA) is only detected at a very low level, in the blood. Due to this absorption mechanism of essential fatty acids, the administered EPA-E exists as a blood-constituent fatty acid in the total lipids. […] Radioactivity was primarily excreted in expired air (44%) after single oral administration at 30 mg/kg EPA-E with minimal excretion in bile and urine (˜3%) and approximately 20% excreted in feces.
Renal excretion was the elimination route for several minor highly polar metabolites (<0.4%), but EPA-E, EPA, DPA or DHA were not detected in the urine. In feces, EPA-E and EPA, evidently derived from the unabsorbed drug, were detected; however, no DPA or DHA was detected in the feces.

[3] = Absorption, distribution and metabolites after oral 14C-EPA-E in rats; format: in vivo, rat
Protocol: as §1
After administration of ^14C-EPA-E into the ligated intestine of rats, the residual radioactivity in the intestine at 24 hours was only 4.6% of the administered dose. Radioactivity transferred to the plasma and lymph was mainly detected in the triglyceride (TG) fraction in the early phase after dosing, while distribution to the free fatty acid (FFA) fraction was slight at all timepoints. […] Orally administered EPA-E was primarily incorporated in adrenal gland lipids as cholesterol esters of the fatty acids eicosapentaenoic acid (EPA), docosapentaenoic acid (DPA) and docosahexaenoic acid (DHA).
After oral administration of ^14C-EPA-E to the rat, EPA, DPA and DHA were detected as metabolites in the total lipid fraction of the plasma and tissues (liver, fat, heart and brain). […] In the total lipid fraction of the liver, the radioactivity originated mainly from EPA, DPA and DHA. Thus, it is considered that EPA, DPA and DHA are the predominant metabolites of ^14C-EPA-E in tissues, as constituent fatty acids of the total lipid fraction.

[4] = tested on: mouse diet-induced hepatic steatosis model; assay: Mouse diet-induced hepatic steatosis model; format: in vivo; details: repeat oral administration at ≧0.1 mg/g
[5] = tested on: galactosamine-induced steatohepatitis mouse model; assay: Galactosamine-induced steatohepatitis mouse model; format: in vivo; details: oral administration at 1000 mg/kg; by suppressing triglyceride accumulation
rats = assay: Lipid lowering in rats; format: in vivo, rat
subjects with NASH = assay: Phase II double blind, placebo-controlled clinical trial of EPA-E in subjects with NASH; format: in vivo, human; parameters: Efficacy, proportion of responders (NAS Score ≦3 or improvement of ≧2 across at least 2 of NAS components): dose or concentration left out as unconfirmed
Text: The non-alcoholic fatty liver disease activity score (NAS) is defined as the unweighted sum of the values for steatosis (ranging from 0-3), lobular inflammation (ranging from 0-3) and ballooning (ranging from 0-2), thereby providing a range of NAS score of from 0 to 8. […] Alternatively, patients can show an improvement in NAS by a value of ≧2 across at least two of the NAS components, together with no worsening in fibrosis. Alternatively, patients can show an improvement in NAS score by ≧3, 4, 5, 6, 7 or 8. This example provides the protocol used for an ongoing phase II clinical trial, double blind, placebo-controlled study to investigate the safety, efficacy, and pharmacokinetic profile of two doses of EPA-E in subjects with NASH. Up to 70 subjects were enrolled into each treatment arm, for a total of 210 subjects to be enrolled. Block randomization using an interactive voice response system (IVRS) was used to assign patients in a 1:1:1 ratio to two active doses and placebo. Patients were stratified at randomization by presence or absence of diabetes. Patients with diabetes comprised no more than 25% of the total number of patients enrolled. […] Subjects were required to have a liver biopsy with proven NASH in the 6 month period prior to screening. The Pharmacokinetic profile for EPA-E was evaluated in a subgroup of subjects in specified sites. Subjects were approached prior to providing informed consent to determine if they will participate in the PK group subset. Approximately 36 subjects participated in the PK subset evaluation (12 from each treatment arm, to include 6 males and 6 females). In order to support the trial, EPA-E capsules and matching placebo capsules were prepared. EPA-E capsule is an oval soft gelatin capsule containing 300 mg of EPA-E as an active ingredient. […] These capsules are unidentifiable as EPA-E capsules or placebo capsules. Subjects were administered orally 3 capsules 3 times daily, immediately after meals. 1. Diagnosis of definite NASH by the central reading pathologists: • Liver biopsy slides will be submitted for evaluation by the central pathologists according to one of the following criteria: • a. Previous liver biopsies must have been obtained within 6 months prior to informed consent and should be judged by the local pathologist as showing NAS ≧4 with a minimum score of 1 each for steatosis and lobular inflammation plus […] ballooning OR at least 1a sinusoidal fibrosis AND a finding of possible or definite steatohepatitis • b. For liver biopsies performed after informed consent is obtained, all slides will be submitted for reading by the central pathologists in conformity with the independent pathology review charter (IPRC)

[6] = tested on: central nervous, autonomic nervous, respiratory and cardiovascular systems; assay: Safety pharmacology studies; format: in vivo; details: oral doses up to 3000 mg/kg
platelets from rats = assay: Platelet anti-aggregation, rat platelets; format: cell-based
hamsters = assay: Lipid lowering in hamsters; format: in vivo, hamster

## CC/C=C\C/C=C\C/C=C\C/C=C\C/C=C\CCCC(=O)O [EPA, eicosapentaenoic acid]
CYP450
  Inhibition of CYP450: unlikely to inhibit

## CC/C=C\C/C=C\C/C=C\C/C=C\C/C=C\CCCC(=O)OCC [EPA-E, ethyl all-cis-5,8,11,14,17-eicosapentaenoate]
rabbits
  Lipid lowering: lower lipids
Platelets from rabbits
  Effect on platelet aggregation: anti-aggregation effects
Arteries in rabbits
  Elasticity of arteries: preserve the elasticity of arteries
Platelets from humans
  Effect on platelet aggregation: anti-aggregation effects
[1]
  Fibrosis: inhibited fibrosis
[2]; derived from the unabsorbed drug, no DPA or DHA detected
  EPA-E and EPA in feces: detected
[2]; species not given
  EPA-E, EPA, DPA or DHA in the urine: not detected
[3]; single oral dose of 14C-EPA-E 30-1000 mg/kg, rats, mainly through the lymphatic route
  Absorption: well-absorbed
[4]
  Fat accumulation: suppressed fat accumulation
  Hepatic SREBP-1c levels: suppressing hepatic SREBP-1c levels
[5]
  Progression of steatohepatitis: retarded progression of steatohepatitis
rats
  Lipid lowering: lower lipids
Subjects with NASH; Day 365, FIG. 21 and FIG. 22
  Serum EPA/AA ratios, patients with sFas≦9.5 ng/mL versus sFas >9.5 ng/mL: higher
Subjects with NASH; fasting glucose=<125 mg/dL and HbA1c=<6.4, Study arm 1, FIG. 4
  Response rate: higher response to rate
Subjects with NASH; fasting glucose=<125 mg/dL and HbA1c=<6.4, Study arm 2, FIG. 4
  Efficacy, response rate: equivalent to that of Study arm 1
Subjects with NASH; patients with GGT levels=<33 IU/L, Study arm 1 and 2, FIG. 9
  Efficacy, NASH response (change of NAS score): higher efficacy
Subjects with NASH; patients with GGT levels=<60 IU/L, Study arm 1 and 2, FIG. 8
  Efficacy, preliminary endpoint achievement rate: higher efficacy
Subjects with NASH; patients with GGT ≦33 IU/L, Study arm 2, FIG. 10
  Efficacy, improvement of serum EPA/AA ratio on Day 365: higher efficacy
Subjects with NASH; patients with HbA1c=<6.4, Study arm 1, FIG. 2
  Efficacy, proportion of responders: higher efficacy
Subjects with NASH; patients with HbA1c=<6.4, Study arm 2, FIG. 2
  Efficacy, proportion of responders: equivalent to that of Study arm 1
Subjects with NASH; patients with NASH risk score equal to or less than 4.0, especially 3.0, 1800 mg EPA-E, TID, FIG. 19
  Efficacy, proportion of responders: higher efficacy
Subjects with NASH; patients with fasting glucose =<125 mg/dL, Study arm 1, FIG. 3
  Efficacy, proportion of responders: higher efficacy
Subjects with NASH; patients with fasting glucose =<125 mg/dL, Study arm 2, FIG. 3
  Efficacy, proportion of responders: equivalent to that of Study arm 1
Subjects with NASH; patients with sFas equal to or less 10.0 ng/mL and/or M30 equal to or less 1500 U/L, 1800 mg EPA-E, TID and 2700 mg EPA-E, TID, FIG. 18
  Efficacy, proportion of responders: higher efficacy
Subjects with NASH; patients with serum M30 equal to or less 1500 U/L, especially 900 U/L, more especially 500 U/L, 1800 mg EPA-E, TID, FIG. 17
  Efficacy, proportion of responders: higher efficacy
Subjects with NASH; patients with serum sFas equal to or less 9.5 ng/mL, 1800 mg EPA-E, TID, FIG. 14
  Efficacy, proportion of responders: higher efficacy
Subjects with NASH; patients with serum sFas equal to or less 9.5 ng/mL, Study arm 1 (1800 mg EPA-E, TID), FIG. 16
  Efficacy, NASH response (change of NAS score): higher efficacy
Subjects with NASH; patients with serum sFas equal to or less 10.0 ng/mL, especially 9.5 ng/mL, 1800 mg EPA-E, TID, FIG. 15
  Efficacy, proportion of responders: higher efficacy
Subjects with NASH; patients without biliary tract disease markers (GGT ≦33 IU/L), Study arm 1 (600 mg TID) and Study arm 2 (900 mg TID), FIG. 7
  Efficacy, proportion of responders: higher efficacy
Subjects with NASH; patients without diabetes or with mild diabetes compared to diabetic patients, Study arm 1, FIG. 1
  Efficacy, proportion of responders (NAS Score ≦3 or improvement of ≧2 across at least 2 of NAS components): higher efficacy
Subjects with NASH; patients without diabetes or with mild diabetes, Study arm 2 (900 mg EPA-E, TID), FIG. 1
  Efficacy, proportion of responders: equivalent to that of Study arm 1
[6]
  Effect on central nervous, autonomic nervous, respiratory and cardiovascular systems: no effect
Platelets from rats
  Effect on platelet aggregation: anti-aggregation effects
hamsters
  Lipid lowering: lower lipids

## CC/C=C\C/C=C\C/C=C\C/C=C\C/C=C\CCCC(=O)OCC [^14C-EPA-E]
[3]; after oral administration of 14C-EPA-E to the rat, liver, fat, heart and brain
  Unchanged EPA-E in the plasma or tissues: no unchanged EPA-E was found
[3]; rats, relatively high levels in brown fat, adrenal, liver and pancreas
  Distribution of radioactivity in body tissues: widely distributed
